Source: paper PMC6366416, “Synthesis and in vitro anticancer activity of certain novel 1-(2-methyl-6-arylpyridin-3-yl)-3-phenylureas as apoptosis-inducing agents” (Journal of Enzyme Inhibition and Medicinal Chemistry, 2019)

Tests used:
Assay in all cases: NCI one-dose SRB growth inhibition
Format in all cases: cell-based
HS 578T = settings: Homo sapiens, Breast Cancer, 48 h, read-out: GI% HS 578T
Method in brief: (§1)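 Growth inhibition read by SRB protein stain following 48 h treatment; NCI standard one-dose protocol.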

SF-295 = settings: Homo sapiens, CNS Cancer, 48 h, read-out: GI% SF-295
Method in brief: as §1

K-562 = settings: Homo sapiens, K562, 48 h, Leukemia, read-out: GI% K-562
Method in brief: as §1

MALME-3M = settings: Homo sapiens, Melanoma, 48 h, read-out: GI% MALME-3M
Method in brief: as §1

OVCAR-8 = settings: Homo sapiens, Ovarian Cancer, 48 h, read-out: GI% OVCAR-8
Method in brief: as §1

NCI-H23 = settings: Homo sapiens, Non-Small Cell Lung Cancer, 48 h, read-out: GI% NCI-H23
Method in brief: as §1

SNB-75 = settings: Homo sapiens, CNS Cancer, 48 h, read-out: GI% SNB-75
Method in brief: as §1

OVCAR-3 = settings: Homo sapiens, OVCAR-3, 48 h, Ovarian Cancer, read-out: GI% OVCAR-3
Method in brief: as §1

HCC-2998 = settings: Homo sapiens, Colon Cancer, 48 h, read-out: GI% HCC-2998
Method in brief: as §1

SK-MEL-28 = settings: Homo sapiens, Melanoma, 48 h, read-out: GI% SK-MEL-28
Method in brief: as §1

RPMI-8226 = settings: Homo sapiens, RPMI-8226, 48 h, Leukemia, read-out: GI% RPMI-8226
Method in brief: as §1

HOP-62 = settings: Homo sapiens, Non-Small Cell Lung Cancer, 48 h, read-out: GI% HOP-62
Method in brief: as §1

OVCAR-5 = settings: Homo sapiens, Ovarian Cancer, 48 h, read-out: GI% OVCAR-5
Method in brief: as §1

T-47D = settings: Homo sapiens, T47D, 48 h, Breast Cancer, read-out: GI% T-47D
Method in brief: as §1

NCI/ADR-RES = settings: Homo sapiens, Ovarian Cancer, 48 h, read-out: GI% NCI/ADR-RES
Method in brief: as §1

SK-MEL-2 = settings: Homo sapiens, Melanoma, 48 h, read-out: GI% SK-MEL-2
Method in brief: as §1

M14 = settings: Homo sapiens, M14, 48 h, Melanoma, read-out: GI% M14
Method in brief: as §1

SNB-19 = settings: Homo sapiens, CNS Cancer, 48 h, read-out: GI% SNB-19
Method in brief: as §1

PC-3 = settings: Homo sapiens, PC-3, 48 h, Prostate, read-out: GI% PC-3
Method in brief: as §1

A549/ATCC = settings: Homo sapiens, A549, 48 h, Non-Small Cell Lung Cancer, read-out: GI% A549/ATCC
Method in brief: as §1

RXF 393 = settings: Homo sapiens, Renal Cancer, 48 h, read-out: GI% RXF 393
Method in brief: as §1

NCI-H226 = settings: Homo sapiens, Non-Small Cell Lung Cancer, 48 h, read-out: GI% NCI-H226
Method in brief: as §1

786-0 = settings: Homo sapiens, Renal Cancer, 48 h, read-out: GI% 786-0
Method in brief: as §1

OVCAR-4 = settings: Homo sapiens, Ovarian Cancer, 48 h, read-out: GI% OVCAR-4
Method in brief: as §1

EKVX = settings: Homo sapiens, Non-Small Cell Lung Cancer, 48 h, read-out: GI% EKVX
Method in brief: as §1

HT29 = settings: Homo sapiens, HT-29, 48 h, Colon Cancer, read-out: GI% HT29
Method in brief: as §1

TK-10 = settings: Homo sapiens, Renal Cancer, 48 h, read-out: GI% TK-10
Method in brief: as §1

HOP-92 = settings: Homo sapiens, Non-Small Cell Lung Cancer, 48 h, read-out: GI% HOP-92
Method in brief: as §1

SF-268 = settings: Homo sapiens, CNS Cancer, 48 h, read-out: GI% SF-268
Method in brief: as §1

NCI-H460 = settings: Homo sapiens, Non-Small Cell Lung Cancer, 48 h, read-out: GI% NCI-H460
Method in brief: as §1

MDA-MB-468 = settings: Homo sapiens, Breast Cancer, 48 h, read-out: GI% MDA-MB-468
Method in brief: as §1

CCRF-CEM = settings: Homo sapiens, Leukemia, 48 h, read-out: GI% CCRF-CEM
Method in brief: as §1

UO-31 = settings: Homo sapiens, Renal Cancer, 48 h, read-out: GI% UO-31
Method in brief: as §1

Row | Structure (SMILES) | inhibition at 10 µM (HS 578T) | inhibition at 10 µM (SF-295) | inhibition at 10 µM (K-562) | inhibition at 10 µM (MALME-3M) | inhibition at 10 µM (OVCAR-8) | inhibition at 10 µM (NCI-H23) | inhibition at 10 µM (SNB-75) | inhibition at 10 µM (OVCAR-3) | inhibition at 10 µM (HCC-2998) | inhibition at 10 µM (SK-MEL-28) | inhibition at 10 µM (RPMI-8226) | inhibition at 10 µM (HOP-62) | inhibition at 10 µM (OVCAR-5) | inhibition at 10 µM (T-47D) | inhibition at 10 µM (NCI/ADR-RES) | inhibition at 10 µM (SK-MEL-2) | inhibition at 10 µM (M14) | inhibition at 10 µM (SNB-19) | inhibition at 10 µM (PC-3) | inhibition at 10 µM (A549/ATCC) | other results
1 | Cc1nc(-c2ccc(Cl)cc2)ccc1NC(=O)Nc1ccc2c(c1)OCO2 [Compound 5g, 1-(Benzo[d][1,3]dioxol-5-yl)-3-(6-(4-chlorophenyl)-2-methylpyridin-3-yl)urea] | < 10% | < 10% | 21% | < 10% | < 10% | < 10% | < 10% | < 10% | < 10% | < 10% | < 10% | < 10% | < 10% | < 10% | < 10% | < 10% | 29% | < 10% | < 10% | 32% | inhibition at 10 µM (RXF 393): < 10%; inhibition at 10 µM (NCI-H226): < 10%; inhibition at 10 µM (786-0): < 10%; inhibition at 10 µM (OVCAR-4): < 10%; inhibition at 10 µM (EKVX): < 10%; inhibition at 10 µM (HT29): 11%; inhibition at 10 µM (TK-10): < 10%; inhibition at 10 µM (HOP-92): < 10%; inhibition at 10 µM (SF-268): < 10%; inhibition at 10 µM (NCI-H460): < 10%; inhibition at 10 µM (MDA-MB-468): < 10%; inhibition at 10 µM (CCRF-CEM): < 10%; inhibition at 10 µM (UO-31): < 10%
2 | Cc1nc(-c2cccs2)ccc1NC(=O)Nc1ccc(F)cc1 [Compound 5h, 1-(4-Fluorophenyl)-3-(2-methyl-6-(thiophen-2-yl)pyridin-3-yl)urea] | < 10% | < 10% | 22% | < 10% | < 10% | 16% | < 10% | < 10% | 14% | < 10% | 24% | < 10% | < 10% | 15% | < 10% | 24% | < 10% | < 10% | 19% | 32% | inhibition at 10 µM (RXF 393): < 10%; inhibition at 10 µM (NCI-H226): < 10%; inhibition at 10 µM (786-0): < 10%; inhibition at 10 µM (OVCAR-4): < 10%; inhibition at 10 µM (EKVX): < 10%; inhibition at 10 µM (HT29): 12%; inhibition at 10 µM (TK-10): < 10%; inhibition at 10 µM (HOP-92): < 10%; inhibition at 10 µM (SF-268): < 10%; inhibition at 10 µM (NCI-H460): < 10%; inhibition at 10 µM (MDA-MB-468): 16%; inhibition at 10 µM (CCRF-CEM): 10%; inhibition at 10 µM (UO-31): 13%
3 | Cc1nc(-c2cccs2)ccc1NC(=O)Nc1ccc(Cl)cc1 [Compound 5i, 1-(4-Chlorophenyl)-3-(2-methyl-6-(thiophen-2-yl)pyridin-3-yl)urea] | < 10% | < 10% | < 10% | < 10% | < 10% | < 10% | < 10% | < 10% | < 10% | < 10% | < 10% | < 10% | < 10% | 13% | < 10% | < 10% | < 10% | < 10% | < 10% | 29% | inhibition at 10 µM (RXF 393): < 10%; inhibition at 10 µM (NCI-H226): < 10%; inhibition at 10 µM (786-0): < 10%; inhibition at 10 µM (OVCAR-4): < 10%; inhibition at 10 µM (EKVX): < 10%; inhibition at 10 µM (HT29): < 10%; inhibition at 10 µM (TK-10): < 10%; inhibition at 10 µM (HOP-92): < 10%; inhibition at 10 µM (SF-268): < 10%; inhibition at 10 µM (NCI-H460): < 10%; inhibition at 10 µM (MDA-MB-468): 17%; inhibition at 10 µM (CCRF-CEM): < 10%; inhibition at 10 µM (UO-31): < 10%
4 | CCOC(=O)c1ccc(NC(=O)Nc2ccc(-c3cccs3)nc2C)cc1 [Compound 5j, Ethyl 4-(3-(2-methyl-6-(thiophen-2-yl)pyridin-3-yl)ureido)benzoate] | < 10% | < 10% | 42% | < 10% | < 10% | < 10% | < 10% | < 10% | < 10% | < 10% | 56% | < 10% | < 10% | < 10% | < 10% | 11% | 38% | < 10% | 52% | 35% | inhibition at 10 µM (RXF 393): < 10%; inhibition at 10 µM (NCI-H226): < 10%; inhibition at 10 µM (786-0): 12%; inhibition at 10 µM (OVCAR-4): < 10%; inhibition at 10 µM (EKVX): < 10%; inhibition at 10 µM (HT29): 19%; inhibition at 10 µM (TK-10): < 10%; inhibition at 10 µM (HOP-92): < 10%; inhibition at 10 µM (SF-268): < 10%; inhibition at 10 µM (NCI-H460): 43%; inhibition at 10 µM (MDA-MB-468): 13%; inhibition at 10 µM (CCRF-CEM): 50%; inhibition at 10 µM (UO-31): < 10%
